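96-well plates; 48 h exposure; 5 concentrations. Endpoints by linear interpolation between flanking doses. Not reached: highest tested concentration assigned. Here, GI50 denotes the concentration required for 50% inhibition of growth.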 Activity calls are given as the source filed them. Cut-off read from the data, not from the text of the source: active = GI50 up to about 1.1 µM and inactive = higher.
Columns and labels:
Assay in all cases: NCI-60 cell line screen, 48 h
HCT-116 = tested on: HCT-116
IGROV-1 = tested on: IGROV-1
EKVX = tested on: EKVX
786-0 = tested on: 786-0
UO-31 = tested on: UO-31
SN12C = tested on: SN12C
SW-620 = tested on: SW-620
SNB-19 = tested on: SNB-19
MCF7 = tested on: MCF7
NCI-H522 = tested on: NCI-H522
OVCAR-8 = tested on: OVCAR-8
A498 = tested on: A498
MDA-N = tested on: MDA-N
MDA-MB-435 = tested on: MDA-MB-435
OVCAR-4 = tested on: OVCAR-4
SK-MEL-2 = tested on: SK-MEL-2
Hs-578T = tested on: Hs-578T
TK-10 = tested on: TK-10
UACC-62 = tested on: UACC-62
SF-539 = tested on: SF-539

Measured: GI50

S=C(Nc1c2c(nc3ccccc13)CCCC2)Nc1c2c(nc3ccccc13)CCCC2
inactive: HCT-116 > 100 µM | IGROV-1 > 100 µM | EKVX > 100 µM | 786-0 > 100 µM | UO-31 > 100 µM | SN12C > 100 µM | SW-620 > 100 µM | SNB-19 > 100 µM | MCF7 > 100 µM | NCI-H522 > 100 µM | OVCAR-8 > 100 µM | A498 > 100 µM | MDA-N > 100 µM | MDA-MB-435 > 100 µM | OVCAR-4 > 100 µM | SK-MEL-2 > 100 µM | Hs-578T > 100 µM | TK-10 > 100 µM | UACC-62 > 100 µM

CCCCCCCCCCCCCCCCOC[C@H](COC(c1ccccc1)(c1ccccc1)c1ccccc1)O[PH](=S)OC (stereo partly drawn)
inactive: HCT-116 > 100 µM | IGROV-1 > 100 µM | EKVX > 100 µM | 786-0 > 100 µM | UO-31 > 100 µM | SN12C > 100 µM | SW-620 > 100 µM | SNB-19 > 100 µM | MCF7 > 100 µM | NCI-H522 > 100 µM | OVCAR-8 > 100 µM | A498 > 100 µM | MDA-N > 100 µM | MDA-MB-435 > 100 µM | SK-MEL-2 > 100 µM | Hs-578T > 100 µM | TK-10 > 100 µM | SF-539 > 100 µM | UACC-62 > 100 µM

Clc1ccc(OCc2nnc(COc3ccc(OCc4nnc(COc5ccc(Cl)cc5Cl)o4)c(Cl)c3)o2)c(Cl)c1
inactive: HCT-116 44.1 µM | IGROV-1 17.7 µM | EKVX 13.6 µM | 786-0 30.8 µM | UO-31 17.9 µM | SN12C 40.3 µM | SW-620 70.1 µM | SNB-19 68.4 µM | MCF7 32.1 µM | NCI-H522 18.1 µM | OVCAR-8 41.4 µM | A498 48.3 µM | MDA-N 47.3 µM | MDA-MB-435 42.7 µM | SK-MEL-2 33.8 µM | Hs-578T 42.5 µM | TK-10 76 µM | UACC-62 40.5 µM

CC(C)N1C=[N+](C(C)C)CC1
inactive: HCT-116 > 100 µM | IGROV-1 > 100 µM | EKVX > 100 µM | 786-0 > 100 µM | UO-31 > 100 µM | SN12C > 100 µM | SW-620 > 100 µM | SNB-19 > 100 µM | MCF7 > 100 µM | NCI-H522 > 100 µM | OVCAR-8 > 100 µM | A498 > 100 µM | MDA-N > 100 µM | MDA-MB-435 > 100 µM | OVCAR-4 > 100 µM | SK-MEL-2 > 100 µM | Hs-578T > 100 µM | TK-10 > 100 µM | SF-539 > 100 µM

N#C/C(=C\n1ccc(=O)[nH]c1=S)C(N)=O
inactive: HCT-116 > 100 µM | IGROV-1 > 100 µM | EKVX > 100 µM | 786-0 > 100 µM | UO-31 > 100 µM | SN12C > 100 µM | SW-620 > 100 µM | SNB-19 > 100 µM | MCF7 > 100 µM | NCI-H522 > 100 µM | OVCAR-8 > 100 µM | A498 > 100 µM | MDA-N > 100 µM | MDA-MB-435 > 100 µM | OVCAR-4 > 100 µM | SK-MEL-2 > 100 µM | Hs-578T > 100 µM | SF-539 > 100 µM | UACC-62 > 100 µM

NC(=O)C(=CNC(=S)Nc1ccccc1)C(N)=O
inactive: HCT-116 > 100 µM | IGROV-1 > 100 µM | EKVX > 100 µM | 786-0 > 100 µM | SN12C > 100 µM | SW-620 > 100 µM | SNB-19 > 100 µM | MCF7 > 100 µM | NCI-H522 > 100 µM | OVCAR-8 > 100 µM | A498 > 100 µM | MDA-N > 100 µM | MDA-MB-435 > 100 µM | OVCAR-4 > 100 µM | SK-MEL-2 > 100 µM | Hs-578T 45 µM | SF-539 > 100 µM | UACC-62 > 100 µM

C1=CCC[C@@H]2CN3CCCC/C=C\CCCC[C@H]4C[C@H](CN(CCCCCCCC1)C4)[C@H]2CC3
inactive: HCT-116 9.12 µM | IGROV-1 10.2 µM | EKVX 11.3 µM | 786-0 8.67 µM | SN12C 12.5 µM | SW-620 9.02 µM | SNB-19 10.9 µM | MCF7 9.18 µM | NCI-H522 9.42 µM | OVCAR-8 9.55 µM | A498 12.3 µM | MDA-N 8.79 µM | MDA-MB-435 8.69 µM | OVCAR-4 12.2 µM | SK-MEL-2 8.61 µM | Hs-578T 10.3 µM | TK-10 8.83 µM | SF-539 7.98 µM | UACC-62 9.46 µM

CCCCC(Sc1cc(Cl)c(C)cc1S(=O)(=O)Nc1nc(N)n[nH]1)C(=O)OC (stereo not drawn)
inactive: HCT-116 > 10 µM | IGROV-1 > 10 µM | EKVX > 10 µM | 786-0 > 10 µM | SN12C > 10 µM | SW-620 > 10 µM | SNB-19 > 10 µM | MCF7 > 10 µM | NCI-H522 > 10 µM | OVCAR-8 > 10 µM | A498 > 10 µM | MDA-N > 10 µM | MDA-MB-435 > 10 µM | OVCAR-4 > 10 µM | SK-MEL-2 > 10 µM | Hs-578T > 10 µM | TK-10 > 10 µM | SF-539 > 10 µM | UACC-62 > 10 µM

Cc1ccc(C(=O)Nc2ccc(CP(=O)(O)O)cc2)cc1NC(=O)Nc1cc(C(=O)Nc2ccc(CP(=O)(O)O)cc2)ccc1C
inactive: HCT-116 > 100 µM | IGROV-1 > 100 µM | EKVX > 100 µM | 786-0 > 100 µM | UO-31 > 100 µM | SN12C > 100 µM | SW-620 > 100 µM | MCF7 > 100 µM | NCI-H522 > 100 µM | OVCAR-8 > 100 µM | A498 > 100 µM | MDA-N > 100 µM | MDA-MB-435 > 100 µM | OVCAR-4 > 100 µM | SK-MEL-2 > 100 µM | Hs-578T > 100 µM | TK-10 > 100 µM | SF-539 > 100 µM | UACC-62 > 100 µM

COc1ccc(-c2nnc3n(C)c4ccccc4n3c2=O)cc1
inactive: HCT-116 48.6 µM | IGROV-1 51.5 µM | EKVX > 100 µM | 786-0 37.2 µM | UO-31 42.8 µM | SN12C 59 µM | SW-620 > 100 µM | SNB-19 91.8 µM | MCF7 > 100 µM | NCI-H522 77.8 µM | OVCAR-8 56.1 µM | A498 > 100 µM | MDA-N > 100 µM | MDA-MB-435 > 100 µM | OVCAR-4 > 100 µM | SK-MEL-2 > 100 µM | Hs-578T 33 µM | TK-10 89.1 µM | SF-539 32.7 µM
